Read-outs that look alike come from different tables or passages of the source.
What was measured:
gp120 = gp120 (Human immunodeficiency virus type 1 group M subtype B, UniProt P03375); assay: biochemical; type: binding, HIV-1
HIV-1MN gp120 and sCD4 = biological target: T1, HIV-1MN gp120 and sCD4 (Human immunodeficiency virus type 1 group M subtype B, UniProt P05877); assay: biochemical; type: binding; conditions: read-out: IC50 (μM ± SD), interaction HIV-1MN gp120 and sCD4
T1 construct: recombinant gp120 from HIV-1IIIB and HIV-1MN
Protocol: (§1) The compounds were incubated at graded concentrations with sCD4 (0.25 μg/ml) in the wells of polystyrene plates containing recombinant gp120, which was captured by coating the plates with a sheep anti-gp120 antibody D7324.

HIV-1IIIB gp120 and sCD4 = biological target: T2, HIV-1IIIB gp120 and sCD4 (Human immunodeficiency virus type 1 group M subtype B, UniProt P03375); assay: biochemical; type: binding; conditions: read-out: IC50 (μM ± SD), interaction HIV-1IIIB gp120 and sCD4
T2 construct: recombinant gp120 from HIV-1IIIB and HIV-1MN
Protocol: as §1

CD4 = CD4 (Homo sapiens, UniProt P01730); assay: Surface plasmon resonance (SPR), ligand CD4; type: binding
[1] = system: primary HIV-1 isolate 92US657 (subtype B, R5); assay: Neutralization assay in PBMC (p24 ELISA); conditions: read-out: IC50 (μM) ± S.D., inhibitory activity on infection
Protocol: (§4) PBMCs were isolated from the blood of healthy donors at the New York Blood Center by standard density-gradient centrifugation using Histopaque-1077 (Sigma-Aldrich). The cells were cultured at 37° C. for 2 h. Non-adherent cells were collected and resuspended at 5×10^6 cells/ml in RPMI-1640 medium containing 10% (v/v) fetal bovine serum, 5 μg/ml of phytohemagglutinin, and 100 U/ml of IL-2 (Sigma-Aldrich), followed by incubation at 37° C. for three days.

[2] = system: HIV-1 RF/L-323-12-3 (protease resistant isolate); assay: Multi-cycle neutralization assay in MT-2 cells
[3] = system: primary HIV-1 isolate RU570 (clade G, R5); assay: Neutralization assay in PBMC (p24 ELISA); conditions: read-out: IC50 (μM) ± S.D., inhibitory activity on infection
Protocol: as §4

[4] = Cytotoxicity in MT-2 cells (XTT); type: cell-based; conditions: human; MT-2 cells, XTT, four days
Protocol: (§2) Cytotoxicity of small molecules in MT-2 cells and PBMC was measured by the XTT ((sodium 3′-(1-(phenylamino)-carbonyl)-3,4-tetrazolium-bis(4-methoxy-6-nitro)benzene-sulfonic acid hydrate)) method. Briefly, for MT-2 cells, 100 μl of a small molecule at graded concentrations was added to an equal volume of cells (10^5 cells/ml) in 96-well plates followed by incubation at 37° C. for four days, which ran parallel with the neutralization assay in MT-2 (except medium was added instead of virus). In the case of PBMC, 5×10^5 cells/ml was used and the cytotoxicity was measured after seven days. […] The percentage cytotoxicity and the CC50 values were calculated as described above.

HIV-1 MN = assay: Multi-cycle neutralization assay in MT-2 cells
Protocol: In brief, 1×10^4 MT-2 cells were infected with HIV-1 at 100 TCID50 (50% tissue culture infective dose) (0.01MOI) in 200 μl medium in the presence or absence of small molecules at graded concentrations and incubated overnight. The culture supernatants were then removed and replaced with fresh media. On the fourth day post-infection, 100 μl of culture supernatants were collected from each well, mixed with equal volume of 5% Triton X-100 and tested for p24 antigen by sandwich-ELISA. The percent inhibition of p24 production and IC50 values were calculated by the GraphPad Prism software (GraphPad Software Inc.).

HIV-1 BaL = assay: Neutralization assay in PBMC (p24 ELISA)
Protocol: as §4

HIV-1 89.6 = assay: Neutralization assay in PBMC (p24 ELISA); conditions: read-out: IC50 (μM) ± S.D., inhibitory activity on infection
Protocol: (§5) The inhibitory activity of small molecules on infection by primary HIV-1 isolates was determined. PBMCs were isolated from the blood of healthy donors at the New York Blood Center by standard density-gradient centrifugation using Histopaque-1077 (Sigma-Aldrich). The cells were cultured at 37° C. for 2 h. Non-adherent cells were collected and resuspended at 5×10^6 cells/ml in RPMI-1640 medium containing 10% (v/v) fetal bovine serum, 5 μg/ml of phytohemagglutinin, and 100 U/ml of IL-2 (Sigma-Aldrich), followed by incubation at 37° C. for three days.

[5] = system: primary HIV-1 isolate 92UG031 (subtype A, R5); assay: Neutralization assay in PBMC (p24 ELISA); conditions: read-out: IC50 (μM) ± S.D., inhibitory activity on infection
Protocol: as §5

[6] = system: laboratory-adapted HIV-1 IIIB strain; assay: microbe, parasite or virus in culture; conditions: Human immunodeficiency virus 1, IIIB
[7] = system: primary HIV-1 isolate 93IN101 (subtype C, R5); assay: Neutralization assay in PBMC (p24 ELISA); conditions: read-out: IC50 (μM) ± S.D., inhibitory activity on infection
Protocol: as §5

[8] = Cytotoxicity in PBMC (XTT); type: cell-based; conditions: human; PBMC, XTT, seven days
Protocol: as §2

PBMC = assay: Cytotoxicity in PBMC (XTT); type: cell-based; conditions: for % toxicity at that dose (number in parenthesis), PBMC: at the dose given as CC50 bound; for CC50: PBMC, XTT, seven days, read-out: PBMC CC50
Protocol: as §2

[9] = system: primary HIV-1 isolate 93BR029 (clade F, R5); assay: Neutralization assay in PBMC (p24 ELISA); conditions: read-out: IC50 (μM) ± S.D., inhibitory activity on infection
Protocol: as §4

HIV-1 RF = assay: Multi-cycle neutralization assay in MT-2 cells
[10] = system: primary HIV-1 isolate 93TH060 (subtype E, R5); assay: Neutralization assay in PBMC (p24 ELISA); conditions: read-out: IC50 (μM) ± S.D., inhibitory activity on infection
Protocol: as §5

HIV-1 SF162 = assay: Neutralization assay in PBMC (p24 ELISA); conditions: read-out: IC50 (μM) ± S.D., inhibitory activity on infection
Protocol: as §4

HIV-1 SF2 = assay: Multi-cycle neutralization assay in MT-2 cells
[11] = system: primary HIV-1 isolate BCF02 (Group 0, R5); assay: Neutralization assay in PBMC (p24 ELISA); conditions: read-out: IC50 (μM) ± S.D., inhibitory activity on infection
Protocol: as §5

[12] = system: AZT-resistant (AZT-R) HIV-1 strain; assay: Multi-cycle neutralization assay in MT-2 cells
[13] = system: pNL4-3 gp41 (36G) V38E, N42S (fusion resistant isolate); type: cell-based, HIV-1; conditions: subtype B, MT-2, X4, fusion resistant isolate, read-out: IC50 (μM) ± S.D., inhibitory activity on infection
MT-2 cells = assay: Cytotoxicity in MT-2 cells (XTT); type: cell-based; conditions: for CC50: MT-2 cells, XTT, four days, read-out: MT-2 Cells CC50
Protocol: as §2

[14] = system: laboratory-adapted HIV-1 IIIB strain
TZM-bl cells = assay: Cytotoxicity in TZM-bl cells (XTT); type: cell-based
Protocol: (§3) The cytotoxicity of small molecules in TZM-bl cells was measured by a colorimetric method using XTT (sodium 3′-(1-(phenylamino)-carbonyl)-3,4-tetrazolium-bis(4-methoxy-6-nitro)benzenesulfonic acid hydrate), a light yellowish tetrazolium dye. Briefly, 100 μl of a compound at graded concentrations was added to equal volume of cells (10^5/ml) in wells of 96-well plates followed by incubation at 37° C. for 3 days and addition of XTT (PolySciences, Inc., Warrington, Pa.).

[15] = Cytotoxicity in TZM-bl cells (XTT); type: cell-based; conditions: human; TZM-bl cells, XTT, 3 days; read-out: TZM-bl cells CC50 (μM ± SD)
Protocol: as §3

[16] = system: CD4-dependent virus (ADA); type: cell-based; conditions: ADA in Cf2Th-CD4+-CCR5+ target cells, FIG. 5; read-out: IC50, inhibition of the CD4-dependent virus
[17] = captured ELISA, sCD4 0.25 μg/ml
[18] = Human immunodeficiency virus 1, PBMC
[19] = Human immunodeficiency virus 1, MT2, read-out: IC50 (μM) ± S.D., inhibitory activity on infection
[20] = at the dose given as CC50 bound
[21] = MT2, read-out: MT-2 Cells IC50 (μM ± SD)

## CN1C(=O)[C@@H](c2cc(Cl)c(O)c(Cl)c2)NC(=O)[C@@H]2NC(=O)[C@@H](c3cc(Cl)c(O)c(Cl)c3)NC(=O)[C@H](NC(=O)C(=O)c3cc(Cl)c(O)c(Cl)c3)Cc3c[nH]c4c(cccc34)-c3cc2cc(c3O)Oc2ccc(cc2)C[C@H]1C(=O)N[C@@H](C(=O)O)c1ccc(O)cc1 [Chloropeptin]
gp120; SPR, ligand gp120
  Kd: 2.5 µM
  Rmax (RU): 1160 RU
  koff: 0.011 s⁻¹
HIV-1MN gp120 and sCD4; [17]
  IC50: 0.31 ± 0.2 µM
HIV-1IIIB gp120 and sCD4; [17]
  IC50: 0.31 µM
CD4
  Kd: 5.4 µM
CD4; SPR, ligand CD4
  Rmax (RU): 76.8 RU
CD4; read-out: Koff (s − 1)
  koff: 0.018 s⁻¹

## Cc1nc(C(NC(=O)C(=O)Nc2ccc(Cl)c(F)c2)C2CCCCN2)sc1CO (stereo not drawn) [Compound 27, N^1-(4-chloro-3-fluorophenyl)-N^2-((5-(hydroxymethyl)-4-methylthiazol-2-yl)(piperidin-2-yl)methyl)oxalamide.2HCl]
[1]; [18]
  IC50: 12.5 ± 2.4 µM
[2]; [19]
  IC50: 6.2 ± 0.9 µM
[3]; [18]
  IC50: 15.3 ± 1.7 µM
[4]
  CC50 at 4 days: ~83 µM
HIV-1 MN; [19]
  IC50: 18.5 ± 1.8 µM
HIV-1 BaL; Human immunodeficiency virus 1, BAL, read-out: IC50 (μM) ± S.D., inhibitory activity on infection
  IC50: 43.8 ± 5 µM
HIV-1 89.6; [18]
  IC50: 3.2 ± 0.7 µM
[5]; [18]
  IC50: 10.7 ± 0.3 µM
[6]; MT2, read-out: IC50 (μM) ± S.D., inhibitory activity on infection
  IC50: 4.1 ± 0.7 µM
[7]; [18]
  IC50: ~84 µM
[8]
  CC50 at 7 days: > 104 µM
PBMC
  % toxicity at that dose (number in parenthesis), PBMC: (40%)
[9]; [18]
  IC50: 9.9 ± 0.8 µM
HIV-1 RF; [19]
  IC50: 13.8 ± 2.3 µM
[10]; [18]
  IC50: 11 ± 0.5 µM
HIV-1 SF162; [18]
  IC50: 16.3 ± 1.7 µM
HIV-1 SF2; [19]
  IC50: 35.7 ± 2.6 µM
[11]; [18]
  IC50: ~84 µM
[12]; [19]
  IC50: 6.5 ± 0.9 µM

## Cc1ccc(NC(=O)C(=O)NC(c2nc(C)c(CCO)s2)C2CCCCN2)cc1F.Cl (stereo not drawn) [Compound 38, N^1-(3-fluoro-4-methylphenyl)-N^2-((5-(2-hydroxyethyl)-4-methylthiazol-2-yl)(piperidin-2-yl)methyl)oxalamide.HCl]
[13]
  IC50: 8.4 ± 0.4 µM
[1]; 92US657, subtype B, PBMC, R5, primary isolate
  IC50: 6.8 ± 0.7 µM
[2]; read-out: IC50 (μM) ± S.D., inhibitory activity on infection, HIV-1 RF/L-323-12-3, subtype B, MT-2, X4, protease resistant isolate
  IC50: 10.2 ± 0.4 µM
[3]; RU570, subtype G, PBMC, R5, primary isolate
  IC50: 15.8 ± 0.9 µM
MT-2 cells; listed as NBD-110017
  CC50: > 87 µM
MT-2 cells
  CC50: ~85 µM
MT-2 cells; [20]
  % toxicity at that dose (number in parenthesis), MT-2 cells: 30%
HIV-1 MN; read-out: IC50 (μM) ± S.D., inhibitory activity on infection, MN, subtype B, MT-2, X4, laboratory strain
  IC50: 14.9 ± 2.6 µM
HIV-1 BaL; read-out: IC50 (μM) ± S.D., inhibitory activity on infection, BaL, subtype B, R5, laboratory strain
  IC50: 30.3 ± 1.4 µM
HIV-1 89.6; 89.6, subtype B, PBMC, R5X4, laboratory strain
  IC50: 14.7 ± 1.1 µM
[5]; 92UG031, subtype A, PBMC, R5, primary isolate
  IC50: 10.1 ± 1.8 µM
[14]; read-out: IC50 (μM) ± S.D., inhibitory activity on infection, IIIB, subtype B, MT-2, X4, laboratory strain
  IC50: 5.3 ± 1.7 µM
[14]; read-out: MT-2 Cells IC50 (μM ± SD), multi-cycle assay, MT-2 cells, HIV-1 IIIB
  IC50: 3.7 ± 0.7 µM
[7]; 93IN101, subtype C, PBMC, R5, primary isolate
  IC50: > 87 µM
PBMC
  CC50: > 64 µM
  % toxicity at that dose (number in parenthesis), PBMC: 0%
[9]; 93BR029, subtype F, PBMC, R5, primary isolate
  IC50: 8.6 ± 0.4 µM
TZM-bl cells; TZM-bl cells, XTT, 3 days, read-out: TZM-bl cells CC50 (μM ± SD)
  CC50: > 85 µM
TZM-bl cells; [20]
  % toxicity at that dose (number in parenthesis), TZM-bl cells: 40%
HIV-1 RF; read-out: IC50 (μM) ± S.D., inhibitory activity on infection, RF, subtype B, MT-2, R5X4, laboratory strain
  IC50: 12.4 ± 1.4 µM
[10]; 93TH060, subtype E, PBMC, R5, primary isolate
  IC50: 14.7 ± 0.7 µM
HIV-1 SF162; SF162, subtype B, PBMC, R5, laboratory strain
  IC50: 16.5 ± 4 µM
HIV-1 SF2; read-out: IC50 (μM) ± S.D., inhibitory activity on infection, SF2, subtype B, MT-2, R5X4, laboratory strain
  IC50: 27.6 ± 1.7 µM
[11]; BCF02, Group 0, PBMC, R5, primary isolate
  IC50: ~87 µM
[12]; read-out: IC50 (μM) ± S.D., inhibitory activity on infection, AZT-R, subtype B, MT-2, X4, RT-resistant isolate
  IC50: 14.5 ± 1.5 µM

## O=C(CCC(=O)Nc1ccc(Cl)cc1)NCCCN1CCC(O)CC1 [Compound 44, N^1-(4-chlorophenyl)-N^4-(3-(4-hydroxypiperidin-1-yl)propyl)succinamide]
other
  melting point: 154 to 155 °C
[4]
  CC50 at 4 days: > 109 µM
[6]; [21]
  IC50: > 109 µM
[15]
  CC50 at 3 days: ~109 µM

## CC1CCCN(c2ccccc2CNC(=O)CCC(=O)Nc2ccc(Cl)cc2)C1 (stereo not drawn) [Compound 45, N^1-(4-chlorophenyl)-N^4-(2-(3-methylpiperidin-1-yl)benzyl)succinamide]
other
  melting point: 162 to 163 °C
[4]
  CC50 at 4 days: > 97 µM
[6]; [21]
  IC50: > 97 µM
[15]
  CC50 at 3 days: > 97 µM

## CC1(C)CC(NC(=O)C(=O)Nc2ccc(Br)cc2)CC(C)(C)N1 [NBD-557]
gp120
  Kd: 42 µM
  Koff (s − 1): 4.7 × 10−2 s − 1
  Rmax (RU): 1.48 RU
HIV-1MN gp120 and sCD4
  IC50: 4.21 ± 1.1 µM
HIV-1IIIB gp120 and sCD4
  IC50: 3.08 ± 0.6 µM
MT-2 cells
  CC50: 223 µM
PBMC
  CC50: 603 µM
CD4; SPR
  binding to CD4: not to CD4
[16]
  IC50: 13.4 µM

— patent US20140377219A1, “HIV INHIBITORS” (New york Blood Center, Inc., priority 2011, published 2014)
